Results on three compounds are retold here after ChEMBL document CHEMBL5325469, “Research progress of STAT3-based dual inhibitors for cancer therapy” (Bioorg Med Chem, 2023).

pIC50: −log10 of the molar value.

The test system of one assay is MDA-MB-231. As to the kind of experiment: Antiproliferative activity against human MDA-MB-231 cells assessed as inhibition of cell growth. Format: functional, cell-based.
Assay [1] has as its target Tubulin. The experiment in a line: Inhibition of tubulin polymerization (unknown origin). It is filed as protein-complex assay, Homo sapiens.
The target in assay [2] is Signal transducer and activator of transcription 3 (Homo sapiens, UniProt P40763). As to the kind of experiment: Inhibition of STAT3 phosphorylation (unknown origin).
Chain of Signal transducer and activator of transcription 3 (P40763 whole entry): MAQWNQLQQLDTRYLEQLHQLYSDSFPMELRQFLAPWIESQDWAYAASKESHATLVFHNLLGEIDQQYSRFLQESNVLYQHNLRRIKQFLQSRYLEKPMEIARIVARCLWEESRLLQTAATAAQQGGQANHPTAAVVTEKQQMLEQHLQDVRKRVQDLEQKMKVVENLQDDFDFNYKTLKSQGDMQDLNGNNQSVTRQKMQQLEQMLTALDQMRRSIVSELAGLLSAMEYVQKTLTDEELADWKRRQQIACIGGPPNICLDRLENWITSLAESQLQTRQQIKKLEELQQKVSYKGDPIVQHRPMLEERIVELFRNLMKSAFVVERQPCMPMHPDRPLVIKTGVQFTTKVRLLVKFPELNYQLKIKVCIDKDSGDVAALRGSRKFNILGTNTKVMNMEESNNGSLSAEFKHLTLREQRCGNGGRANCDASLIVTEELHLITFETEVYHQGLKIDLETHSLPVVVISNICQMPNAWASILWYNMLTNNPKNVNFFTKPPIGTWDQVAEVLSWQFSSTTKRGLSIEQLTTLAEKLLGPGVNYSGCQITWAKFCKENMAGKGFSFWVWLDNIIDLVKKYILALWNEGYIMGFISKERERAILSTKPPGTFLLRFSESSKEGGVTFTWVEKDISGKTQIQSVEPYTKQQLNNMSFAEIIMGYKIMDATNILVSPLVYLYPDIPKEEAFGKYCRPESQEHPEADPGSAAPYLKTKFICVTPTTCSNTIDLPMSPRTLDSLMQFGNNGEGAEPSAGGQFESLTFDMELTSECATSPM
Assay [3] relates to HCT-116. The experiment in a line: Antiproliferative activity against human HCT-116 cells assessed as inhibition of cell growth. Format: functional, cell-based.
The next assay has as its system A549. The experiment in a line: Antiproliferative activity against human A549 cells assessed as inhibition of cell growth. It is filed as functional, cell-based.
For the next assay, the system named is HL-60. As to the kind of experiment: Antiproliferative activity against human HL-60 cells assessed as inhibition of cell growth incubated for 72 hrs by IncuCyte live-cell imaging analysis. It is filed as functional, cell-based. The conditions noted are these: HL-60, 72 h.
For assay [4], the system named is HCT-116. As to the kind of experiment: Antiproliferative activity against human HCT-116 cells assessed as inhibition of cell growth incubated for 72 hrs by IncuCyte live-cell imaging analysis. It is filed as functional, cell-based. The settings on record: HCT-116, 72 h.
Assay [5] addresses Tubulin. As to the kind of experiment: Inhibition of tubulin polymerization (unknown origin) by fluorescence-based tubulin polymerization assay. It is filed as protein-complex assay, Homo sapiens.
In another assay the test system is CAPAN-1. The experiment in a line: Antiproliferative activity against human CAPAN-1 cells assessed as inhibition of cell growth incubated for 72 hrs by IncuCyte live-cell imaging analysis. It is filed as functional, cell-based. The settings on record: CAPAN-1, 72 h.
In the next assay the test system is Z-138. As to the kind of experiment: Antiproliferative activity against human Z138 cells assessed as inhibition of cell growth incubated for 72 hrs by IncuCyte live-cell imaging analysis. It is filed as functional, cell-based. The settings on record: Z-138, 72 h.
Assay [6] in a line: Antiproliferative activity against human DND41 cells assessed as inhibition of cell growth incubated for 72 hrs by IncuCyte live-cell imaging analysis. It is filed as functional, cell-based. The conditions noted are these: DND41, 72 h.
The next assay concerns K562. The experiment in a line: Antiproliferative activity against human K562 cells assessed as inhibition of cell growth incubated for 72 hrs by IncuCyte live-cell imaging analysis. It is filed as functional, cell-based. The settings on record: K562, 72 h.
Another assay concerns NCI-H460. As to the kind of experiment: Antiproliferative activity against human NCI-H460 cells assessed as inhibition of cell growth incubated for 72 hrs by IncuCyte live-cell imaging analysis. It is filed as functional, cell-based. The conditions noted are these: NCI-H460, 72 h.
Another assay deals with DU-145. As to the kind of experiment: Cytotoxicity against human DU-145 cells assessed as inhibition of cell growth incubated for 24 hrs by MTT assay. It is filed as functional, cell-based. The settings on record: DU-145, 24 h. In general terms: Tetrazolium dyes change colour on reduction, which living cells bring about.

Usually pIC50 stands for the IC50 on a negative log10 scale, so that one unit is a factor of ten. For the compound `C=CN(c1cccc2ccccc12)S(=O)(=O)c1ccc(OC)cc1`, the pIC50 was 5.55 with MDA-MB-231; 6.08 against Tubulin [1]; 5.16 in assay [2]; 5.52 with HCT-116 [3]; 5.87 in the assay with A549.
`COC(=O)Nc1ccc(C(=O)Nc2ccccc2OC)c(O)c1`: the pIC50 in the assay with HL-60 is 5.82; in the assay with HCT-116 [4] it was 5.85; against Tubulin [5], 5.41; in the assay on CAPAN-1 it was 5.89; in the assay with Z-138, 5.89; in [6], 5.89. Further, the negative logarithm of the IC50 (pIC50) with K562 was 5.89; with NCI-H460, 5.55.
For `COc1cccc2c1C(=O)c1c(O)c3c(c(O)c1C2=O)C[C@@](O)(C(=O)CO)C[C@@H]3O[C@H]1C[C@H](N)[C@H](O)[C@H](C)O1` [DOXORUBICIN], the pIC50 with DU-145 is less than 4.52.
